{"source": "patent US8637560B2", "about": "“Imidazolidinone compounds, methods to inhibit deubiquitination and methods of treatment” (The United States of America as Represented by the …, priority 2007, dated 2014)", "key": {"[1]": {"test_system": "JEKO-1 cells", "assay": "Combination treatment of EerI and BH3 mimetic, MTT viability", "details": "48 h", "quoted_text": "Cell viability was measured by the MTT assay. […] JEKO-1 cells were treated with the indicated compounds for 48 h. Cell viability was measured by the MTT assay."}, "[2]": {"test_system": "atx3", "assay": "In vitro atx3-dependent deubiquitination of immunoprecipitated atx3-substrate complexes", "format": "biochemical", "details": "for effect on atx3-mediated deubiquitination when added to purified atx3-substrate complex: added in vitro; for deubiquitination of atx3-bound ubiquitin conjugates from treated cells: complex isolated from treated cells, compared with control cells"}, "[3]": {"test_system": "primary CLL cells", "assay": "MTT viability assay, primary CLL samples", "format": "cell-based", "details": "3 days", "method": "Experiments for FIGS. 1-5 were conducted in vitro by keeping cell lines in RPMI medium with 10% FCS and primary cells in AIM V medium. Cells were seeded into 96 well plates at a concentration of 4×10e5/ml for cell lines at a concentration of 5×10e6/mL for primary cells. Cells were incubated for 2 days (cell lines) or 3 days (primary samples) in the indicated concentration of drug (bortezomib from commercial clinical grade stock; EER1 provided by Dr. Ye and Dr. Trenkle). Viability was determined using the standard MTT assay. Synergy calculations were carried out with Calcusyn software."}, "[4]": {"test_system": "recombinant retrovirus that expresses a GFP reporter gene", "assay": "Production of recombinant GFP retrovirus in GP293 packaging cells", "format": "cell-based", "details": "unidentified retrovirus, medium collected 36 hours later, GFP fluorescence in target cells, read-out: IC50 for inhibition of production of recombinant retrovirus", "method": "[…]. Infection was allowed to proceed for 10 hours before the medium was replaced with fresh medium. The expression of the GFP protein as a result of viral infection was measured by a fluorescence meter. […]. The IC50 was ˜3 uM."}, "[5]": {"test_system": "MHC class I heavy chain (HC)", "assay": "Degradation of MHC class I heavy chain in US11-expressing astrocytoma (A9) cells, fractionation and immunoblot", "format": "cell-based", "method": ". […] The cells were permeabilized in a buffer containing 0.028% of digitonin, and fractionated into a pellet fraction containing the ER membranes and a supernatant fraction containing the cytosol (Shamu et al., 1999; Ye et al., 2001, 2003). HC was immunoprecipitated from detergent extracts of these fractions under denaturing condition, and analyzed by immunoblotting (Shamu et al., 1999; Wang et al., 2006). […] As a positive control, A9 cells were treated with MG132, a proteasome inhibitor. […] However, a significant fraction of HC accumulated in MG132-treated cells was non-ubiquitinated species with its N-linked glycan removed by a cytosolic N-glycanase (Hirsch et al., 2003; Blom et al., 2004). The accumulation of non-modified substrates upon inhibition of the proteasome function has been observed for many proteasomal substrates, and was generally attributed to deubiquitination by cytosolic DUBs. […]"}, "[6]": {"test_system": "polyubiquitinated proteins", "assay": "Accumulation of polyubiquitinated proteins in treated cells, immunoblot", "format": "cell-based", "details": "for accumulation of polyubiquitinated proteins in cells: EerI and structurally related analogues, FIG. 12C, D"}, "[7]": {"test_system": "GFPμ", "assay": "Degradation of GFPμ in astrocytoma cells, immunoblot", "format": "cell-based", "details": "12 h", "method": "[…]. Astrocytoma cells expressing HA-tagged GFPμ were treated with the indicated chemicals (12 h). The steady state levels of GFPμ in whole cell extracts (WCE) were analyzed by immunoblotting (IB). Where as indicated, GFPμ was first immunoprecipitated before immunoblotting analyses.\nSince a large portion of p97 is localized in the cytosol, it may be involved in degradation of misfolded cytosolic proteins. In fact, GFPμ, a model proteasomal substrate (Bence et al., 2005) appeared to be degraded in a p97 dependent manner, because the expression of a dominant negative p97 mutant stabilized this substrate in part as a p97-associated form (data not shown)."}, "[8]": {"test_system": "NOXA", "assay": "NOXA protein level by immunoblotting", "format": "cell-based", "details": "variety of cancer and transformed cell lines", "method": ". […] Protein extracts were analyzed by immunoblotting. […] (D) NOXA knock-down cells.\n; FIG. 16; data not shown)."}, "[9]": {"test_system": "MHC class I heavy chain", "details": "permeabilized US11 cells"}, "[10]": {"test_system": "Xbp1 mRNA", "assay": "Xbp1 mRNA splicing by RT-PCR", "details": "JEKO-1 cells"}, "[11]": {"test_system": "eIF2α", "assay": "eIF2α phosphorylation by immunoblotting", "details": "JEKO-1 cells"}, "[12]": {"test_system": "ATF6", "assay": "ATF6 activation in HeLa cells, immunoblotting", "details": "HeLa cells expressing Flag-tagged ATF6", "quoted_text": "(E) HeLa cells expressing Flag-tagged ATF6 were treated with the indicated chemicals. Cell extracts were analyzed by immunoblotting. (F) HeLa cells expressing Flag-tagged ATF6 were treated with the indicated chemicals and stained with Flag antibodies. N, nucleus. Arrows indicate the position of the Golgi."}, "[13]": {"test_system": "TCRα-GFP", "assay": "Degradation of overexpressed TCRα-GFP, immunoblot"}, "[14]": {"test_system": "JEKO cells", "assay": "mRNA expression of BH3-domain proteins by quantitative RT-PCR", "quoted_text": "The precipitated RNA was further purified by a RNA clean-up kit (Qiagen). The purified RNA was quantified, and used as template to synthesize cDNA. The expression of various genes was then determined by quantitative RT-PCR."}, "[15]": {"test_system": "p97-associated deubiquitination (PAD)", "assay": "In vitro deubiquitination of p97-bound substrates immunoprecipitated from treated cells", "details": "for effect on PAD: p97 complexes from treated cells", "quoted_text": "To study PAD, a previously established in vitro deubiquitination assay was used. p97 and its associated substrates immunoprecipitated from cell extracts were incubated in vitro."}}, "note": "Read-outs that look alike come from different tables or passages of the source. Residues, ends and D or L forms follow the SMILES beside them. *: point of attachment. Cbz = O=C(OCc1ccccc1)*", "data": [{"molecule": "CC(C)C(C(=O)O)N1C(=O)/C(=C\\c2ccc(Br)cc2)SC1=S", "note": "(stereo not drawn) [BH3i-1, reference compound]", "values": [{"measurement": "toxicity as a single agent in MCL cells", "setting": "[1]", "value": "did not induce significant toxicity"}]}, {"molecule": "ubiquitin aldehyde [reference compound]", "values": [{"measurement": "effect on atx3-mediated deubiquitination when added to purified atx3-substrate complex", "setting": "[2]", "value": "inhibited"}]}, {"molecule": "CC1(C)C(N(O)C(=O)Nc2ccc(Cl)cc2)N(c2ccc(Cl)cc2)C(=O)N1CC(=O)N/N=C/C=Cc1ccc([N+](=O)[O-])o1", "note": "(stereo not drawn) [EERI, 1-(4-chloro-phenyl)-3-[3-(4-chloro-phenyl)-5,5-dimethyl-1-[3-(5-nitro-furan-2-yl)-allyldiene-hydrazinocarbonylmethyl]-2-oxo-imidazolidin-4-yl]-1-hydroxyl-urea]", "values": [{"measurement": "activity against primary CLL cells", "setting": "[3]", "value": "highly active"}, {"measurement": "IC50", "setting": "[4]", "value": "~3", "unit": "µM"}, {"measurement": "activity of atx3 purified from treated cells on exogenously added ubiquitin oligomers (Ub2-7)", "setting": "[2]; DMSO- vs EerI-treated cells", "value": "equally active"}, {"measurement": "effect on atx3-mediated deubiquitination when added to purified atx3-substrate complex", "setting": "[2]", "value": "had no effect"}, {"measurement": "deubiquitination of atx3-bound ubiquitin conjugates from treated cells", "setting": "[2]", "value": "more resistant to deubiquitination"}, {"measurement": "polyubiquitinated HC in the cytosol", "setting": "[5]", "value": "polyubiquitinated HC was accumulated in the cytosol"}, {"measurement": "time after treatment at which cells start to accumulate polyubiquitinated proteins", "setting": "[6]", "value": "~1.5", "unit": "h"}, {"measurement": "amount of polyubiquitinated proteins accumulated for a given time period", "setting": "[6]; 293T cells, FIG. 6D", "value": "more polyubiquitinated proteins than MG132-treated cells"}, {"measurement": "accumulation of polyubiquitinated proteins in cells", "setting": "[6]", "value": "accumulation of polyubiquitinated proteins"}, {"measurement": "form of GFPμ in treated cells", "setting": "[7]", "value": "present almost exclusively as polyubiquitinated form"}, {"measurement": "level of NOXA protein", "setting": "[8]", "value": "rapidly increased"}, {"measurement": "retrotranslocation and degradation of MHC class I heavy chain on addition to permeabilized cells", "setting": "[9]", "value": "did not inhibit"}, {"measurement": "splicing of Xbp1 mRNA", "setting": "[10]", "value": "induced the splicing of Xbp1"}, {"measurement": "eIF2α phosphorylation", "setting": "[11]", "value": "induced eIF2α phosphorylation"}, {"measurement": "ATF6 cleavage", "setting": "[12]", "value": "no increase in ATF6 cleavage"}, {"measurement": "polyubiquitinated TCRα-GFP", "setting": "[13]", "value": "accumulated polyubiquitinated TCRα-GFP"}, {"measurement": "effect of presence of EerI on cytotoxicity of the BH3 mimetic", "setting": "[1]", "value": "strongly enhanced its cytotoxicity"}, {"measurement": "mRNA expression of BH3-domain proteins Noxa, Bim and Puma", "setting": "[14]", "value": "significantly induced"}, {"measurement": "effect on PAD", "setting": "[15]", "value": "blocks deubiquitination reactions associated with p97"}, {"measurement": "reduction of p97-bound polyubiquitinated substrates after in vitro incubation", "setting": "[15]; substrates isolated from treated cells, non-treated cells ~60%", "value": "~10", "unit": "%"}]}, {"molecule": "CC(C)C[C@H](NC(=O)[C@H](Cc1ccccc1)NC(=O)c1cnccn1)B(O)O", "note": "[bortezomib, reference compound]", "values": [{"measurement": "mRNA expression of BH3-domain proteins Noxa, Bim and Puma", "setting": "[14]", "value": "only induces the expression of Noxa"}]}, {"molecule": "CC1(C)C(N(O)C(=O)Nc2cccc3ccccc23)N(c2cccc3ccccc23)C(=O)N1CC(=O)N/N=C/C=Cc1ccc([N+](=O)[O-])o1", "note": "(stereo not drawn) [Eeyarestatin II, 1-[5,5-dimethyl-3-naphthalen-1-yl-1 [3-(5-nitro-furan-2-yl)-allyldiene-hydrazinocarbonylmethyl]-2-oxo-imidazolidin-4-yl]-3-naphthalen-1-yl-1-hydroxyl-urea]", "values": [{"measurement": "accumulation of polyubiquitinated proteins in cells", "setting": "[6]", "value": "accumulation of polyubiquitinated proteins"}]}, {"molecule": "CC(C)C[C@@H](C=O)NC(=O)[C@H](CC(C)C)NC(=O)[C@H](CC(C)C)NC(=O)OCc1ccccc1", "note": "[MG132, reference compound] (Cbz-Leu-Leu-Leu-aldehyde)", "values": [{"measurement": "deubiquitination of atx3-bound ubiquitin conjugates from treated cells", "setting": "[2]", "value": "rapidly deconjugated"}, {"measurement": "polyubiquitinated HC in the cytosol", "setting": "[5]; A9 cells, 10 μM", "value": "accumulation of polyubiquitinated HC in the cytosol"}, {"measurement": "form of GFPμ in treated cells", "setting": "[7]", "value": "mostly accumulated in the deubiquitinated form"}, {"measurement": "polyubiquitinated TCRα-GFP", "setting": "[13]", "value": "polyubiquitinated TCRα-GFP was accumulated"}, {"measurement": "effect on PAD", "setting": "[15]", "value": "did not apparently block PAD"}]}, {"molecule": "O[C@H](CS)[C@H](O)CS", "note": "(racemic) [DTT, dithiothreitol, reference compound]", "values": [{"measurement": "ATF6 cleavage", "setting": "[12]", "value": "rapidly induced the cleavage of ATF6"}]}]}
